Experimental data reported in paper PMC7976604 (ACS Catalysis, 2021).

Biological target: T1, PA0254/HudA (PA0254^UbiX) (Pseudomonas aeruginosa, UniProt Q9I6N5)
T1 sequence (Q9I6N5 1-496): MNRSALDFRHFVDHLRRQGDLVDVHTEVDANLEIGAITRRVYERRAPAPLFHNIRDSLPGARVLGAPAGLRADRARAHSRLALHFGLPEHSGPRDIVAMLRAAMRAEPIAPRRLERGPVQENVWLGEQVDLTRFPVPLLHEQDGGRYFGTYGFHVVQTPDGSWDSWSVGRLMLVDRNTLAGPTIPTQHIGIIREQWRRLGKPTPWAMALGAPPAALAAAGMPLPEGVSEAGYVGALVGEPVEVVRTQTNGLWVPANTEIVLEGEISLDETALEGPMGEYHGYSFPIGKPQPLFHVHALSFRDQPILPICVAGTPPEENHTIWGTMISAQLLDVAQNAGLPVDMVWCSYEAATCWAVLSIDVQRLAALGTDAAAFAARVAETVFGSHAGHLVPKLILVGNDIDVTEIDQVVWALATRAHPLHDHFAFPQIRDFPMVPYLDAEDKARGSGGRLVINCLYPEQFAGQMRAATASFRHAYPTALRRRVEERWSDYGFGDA
Test: inhibition of P2C decarboxylation, histidine-eluted enzyme
Format: biochemical
Details: read-out: % inhibition at 10 mM

c1c[nH]cn1 [imidazole]
inhibition at 10000 µM: ~50%
